From patent US10538555B2, “Macrocyclic inhibitors of the PD-1/PD-L1 and CD80(B7-1)/PD-L1 protein/protein interactions” (BRISTOL-MYERS SQUIBB COMPANY, priority 2014, dated 2020)
Where a SMILES comes first, the peptide text is derived from it. Bridges are numbered along the chain shown (N, C = ends). [ ]: non-standard residue; d: D form. Phe(3,4-F2) = N[C@@H](Cc1ccc(F)c(F)c1)C(=O)O; d(cisHyp) = O=C(O)[C@H]1C[C@@H](O)CN1; NMeF = CN[C@@H](Cc1ccccc1)C(=O)O; dNMeF = CN[C@H](Cc1ccccc1)C(=O)O; NMeNle = CCCC[C@H](NC)C(=O)O; Orn = NCCC[C@H](N)C(=O)O; Dab = NCC[C@H](N)C(=O)O

These molecules were tested against T1, Human PD-L1/PD-1 (Homo sapiens, UniProt Q9NZQ7) (assay: HTRF Human PD-L1/PD-1 binding assay (PD-1-Ig/PD-L1-His)). Conditions: PD-L1-His 10 nM, PD-1-Ig 20 nM; class symbol; read-out: HTRF Human PD-L1/PD-1 Binding Assay IC50 Range.
T1 construct: TVMV protease cleavage site (C); made in house; host or cells: HEK293T cells
T1 sequence (Q9NZQ7 with tags, fused parts or gaps): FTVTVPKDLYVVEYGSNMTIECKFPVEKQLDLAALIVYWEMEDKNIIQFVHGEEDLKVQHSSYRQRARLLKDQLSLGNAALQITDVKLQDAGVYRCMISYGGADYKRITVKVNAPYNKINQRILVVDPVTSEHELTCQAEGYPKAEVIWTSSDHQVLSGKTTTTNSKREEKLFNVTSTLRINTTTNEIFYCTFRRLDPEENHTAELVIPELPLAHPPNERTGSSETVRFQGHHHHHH
Method in brief: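 Competition of macrocyclic peptides for PD-1/PD-L1 binding measured by HTRF in dPBS containing 0.1% BSA and 0.05% Tween-20. Compound and PD-L1-His (10 nM final) incubated 15 min before PD-1-Ig (20 nM final) and a further 15 min.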
An IC50 of 1 to 9.9 nM was found for `CCCC[C@H]1C(=O)N2C[C@H](O)C[C@@H]2C(=O)N[C@@H](CC(=O)O)C(=O)N[C@@H](C(C)C)C(=O)N(C)[C@@H](Cc2ccccc2)C(=O)N[C@@H](CC(=O)O)C(=O)N2C[C@H](O)C[C@@H]2C(=O)N[C@@H](Cc2c[nH]c3ccccc23)C(=O)N[C@@H](Cc2ccc(O)cc2)C(=O)N[C@@H](CCCN)C(=O)N[C@H](C(=O)NCC(N)=O)CSCC(=O)N[C@@H](Cc2ccc(F)c(F)c2)C(=O)N(C)[C@@H](Cc2ccccc2)C(=O)N1C` [Example 9300] ({CH2CO}-[Phe(3,4-F2)][NMeF][NMeNle][d(cisHyp)]DV[NMeF]D[d(cisHyp)]WY[Orn]CG-NH2; thioether N-13) in this work.
An IC50 of 1 to 9.9 nM was found for `CCCC[C@H]1C(=O)N2C[C@H](O)C[C@@H]2C(=O)N[C@@H](CC(=O)O)C(=O)N[C@@H](C(C)C)C(=O)N(C)[C@H](Cc2ccccc2)C(=O)N[C@@H](CC(=O)O)C(=O)N2C[C@H](O)C[C@@H]2C(=O)N[C@@H](Cc2c[nH]c3ccccc23)C(=O)N[C@@H](Cc2ccc(O)cc2)C(=O)N[C@@H](CCCN)C(=O)N[C@H](C(=O)NCC(N)=O)CSCC(=O)N[C@@H](Cc2ccc(F)c(F)c2)C(=O)N(C)[C@@H](Cc2ccccc2)C(=O)N1C` [Example 9301] ({CH2CO}-[Phe(3,4-F2)][NMeF][NMeNle][d(cisHyp)]DV[dNMeF]D[d(cisHyp)]WY[Orn]CG-NH2; thioether N-13) in this work.
An IC50 of 1 to 9.9 nM was found for `CCCC[C@H]1C(=O)N2C[C@H](O)C[C@@H]2C(=O)N[C@@H](CC(=O)O)C(=O)N[C@@H](C(C)C)C(=O)N(C)[C@@H](Cc2ccccc2)C(=O)N[C@@H](CCC(N)=O)C(=O)N2C[C@H](O)C[C@@H]2C(=O)N[C@@H](Cc2c[nH]c3ccccc23)C(=O)N[C@@H](Cc2ccc(O)cc2)C(=O)N[C@@H](CCCN)C(=O)N[C@H](C(=O)NCC(N)=O)CSCC(=O)N[C@@H](Cc2ccc(F)c(F)c2)C(=O)N(C)[C@@H](Cc2ccccc2)C(=O)N1C` [Example 9302] ({CH2CO}-[Phe(3,4-F2)][NMeF][NMeNle][d(cisHyp)]DV[NMeF]Q[d(cisHyp)]WY[Orn]CG-NH2; thioether N-13) in this work.
An IC50 of 1 to 9.9 nM was found for `CCCC[C@H]1C(=O)N2C[C@H](O)C[C@@H]2C(=O)N[C@@H](CC(=O)O)C(=O)N[C@@H](C(C)C)C(=O)N(C)[C@H](Cc2ccccc2)C(=O)N[C@@H](CCC(N)=O)C(=O)N2C[C@H](O)C[C@@H]2C(=O)N[C@@H](Cc2c[nH]c3ccccc23)C(=O)N[C@@H](Cc2ccc(O)cc2)C(=O)N[C@@H](CCCN)C(=O)N[C@H](C(=O)NCC(N)=O)CSCC(=O)N[C@@H](Cc2ccc(F)c(F)c2)C(=O)N(C)[C@@H](Cc2ccccc2)C(=O)N1C` [Example 9303] ({CH2CO}-[Phe(3,4-F2)][NMeF][NMeNle][d(cisHyp)]DV[dNMeF]Q[d(cisHyp)]WY[Orn]CG-NH2; thioether N-13) in this work.
An IC50 of 1 to 9.9 nM was found for `CCCC[C@H]1C(=O)N2C[C@H](O)C[C@@H]2C(=O)N[C@@H](CC(=O)O)C(=O)N[C@@H](C(C)C)C(=O)N(C)[C@@H](Cc2ccccc2)C(=O)N[C@@H](CCCCN)C(=O)N2C[C@H](O)C[C@@H]2C(=O)N[C@@H](Cc2c[nH]c3ccccc23)C(=O)N[C@@H](Cc2ccc(O)cc2)C(=O)N[C@@H](CCCN)C(=O)N[C@H](C(=O)NCC(N)=O)CSCC(=O)N[C@@H](Cc2ccc(F)c(F)c2)C(=O)N(C)[C@@H](Cc2ccccc2)C(=O)N1C` [Example 9306] ({CH2CO}-[Phe(3,4-F2)][NMeF][NMeNle][d(cisHyp)]DV[NMeF]K[d(cisHyp)]WY[Orn]CG-NH2; thioether N-13) in this work.
An IC50 of 1 to 9.9 nM was found for `CCCC[C@H]1C(=O)N2C[C@H](O)C[C@@H]2C(=O)N[C@@H](CC(=O)O)C(=O)N[C@@H](C(C)C)C(=O)N(C)[C@H](Cc2ccccc2)C(=O)N[C@@H](CCCCN)C(=O)N2C[C@H](O)C[C@@H]2C(=O)N[C@@H](Cc2c[nH]c3ccccc23)C(=O)N[C@@H](Cc2ccc(O)cc2)C(=O)N[C@@H](CCCN)C(=O)N[C@H](C(=O)NCC(N)=O)CSCC(=O)N[C@@H](Cc2ccc(F)c(F)c2)C(=O)N(C)[C@@H](Cc2ccccc2)C(=O)N1C` [Example 9307] ({CH2CO}-[Phe(3,4-F2)][NMeF][NMeNle][d(cisHyp)]DV[dNMeF]K[d(cisHyp)]WY[Orn]CG-NH2; thioether N-13) in this work.
An IC50 of 1 to 9.9 nM was found for `CCCC[C@H]1C(=O)N2C[C@H](O)C[C@@H]2C(=O)N[C@@H](CC(=O)O)C(=O)N[C@@H](C(C)C)C(=O)N(C)[C@@H](Cc2ccccc2)C(=O)N[C@@H](CCCN)C(=O)N2C[C@H](O)C[C@@H]2C(=O)N[C@@H](Cc2c[nH]c3ccccc23)C(=O)N[C@@H](Cc2ccc(O)cc2)C(=O)N[C@@H](CCCN)C(=O)N[C@H](C(=O)NCC(N)=O)CSCC(=O)N[C@@H](Cc2ccc(F)c(F)c2)C(=O)N(C)[C@@H](Cc2ccccc2)C(=O)N1C` [Example 9308] ({CH2CO}-[Phe(3,4-F2)][NMeF][NMeNle][d(cisHyp)]DV[NMeF][Orn][d(cisHyp)]WY[Orn]CG-NH2; thioether N-13) in this work.
An IC50 of 1 to 9.9 nM was found for `CCCC[C@H]1C(=O)N2C[C@H](O)C[C@@H]2C(=O)N[C@@H](CC(=O)O)C(=O)N[C@@H](C(C)C)C(=O)N(C)[C@H](Cc2ccccc2)C(=O)N[C@@H](CCCN)C(=O)N2C[C@H](O)C[C@@H]2C(=O)N[C@@H](Cc2c[nH]c3ccccc23)C(=O)N[C@@H](Cc2ccc(O)cc2)C(=O)N[C@@H](CCCN)C(=O)N[C@H](C(=O)NCC(N)=O)CSCC(=O)N[C@@H](Cc2ccc(F)c(F)c2)C(=O)N(C)[C@@H](Cc2ccccc2)C(=O)N1C` [Example 9309] ({CH2CO}-[Phe(3,4-F2)][NMeF][NMeNle][d(cisHyp)]DV[dNMeF][Orn][d(cisHyp)]WY[Orn]CG-NH2; thioether N-13) in this work.
An IC50 of 1 to 9.9 nM was found for `CCCC[C@H]1C(=O)N2C[C@H](O)C[C@@H]2C(=O)N[C@@H](CC(=O)O)C(=O)N[C@@H](C(C)C)C(=O)N(C)[C@@H](Cc2ccccc2)C(=O)N[C@@H](CCN)C(=O)N2C[C@H](O)C[C@@H]2C(=O)N[C@@H](Cc2c[nH]c3ccccc23)C(=O)N[C@@H](Cc2ccc(O)cc2)C(=O)N[C@@H](CCCN)C(=O)N[C@H](C(=O)NCC(N)=O)CSCC(=O)N[C@@H](Cc2ccc(F)c(F)c2)C(=O)N(C)[C@@H](Cc2ccccc2)C(=O)N1C` [Example 9310] ({CH2CO}-[Phe(3,4-F2)][NMeF][NMeNle][d(cisHyp)]DV[NMeF][Dab][d(cisHyp)]WY[Orn]CG-NH2; thioether N-13) in this work.
An IC50 of 1 to 9.9 nM was found for `CCCC[C@H]1C(=O)N2C[C@H](O)C[C@@H]2C(=O)N[C@@H](CC(=O)O)C(=O)N[C@@H](C(C)C)C(=O)N(C)[C@H](Cc2ccccc2)C(=O)N[C@@H](CCN)C(=O)N2C[C@H](O)C[C@@H]2C(=O)N[C@@H](Cc2c[nH]c3ccccc23)C(=O)N[C@@H](Cc2ccc(O)cc2)C(=O)N[C@@H](CCCN)C(=O)N[C@H](C(=O)NCC(N)=O)CSCC(=O)N[C@@H](Cc2ccc(F)c(F)c2)C(=O)N(C)[C@@H](Cc2ccccc2)C(=O)N1C` [Example 9311] ({CH2CO}-[Phe(3,4-F2)][NMeF][NMeNle][d(cisHyp)]DV[dNMeF][Dab][d(cisHyp)]WY[Orn]CG-NH2; thioether N-13) in this work.
An IC50 of 10 to 99.9 nM was found for `CCCC[C@H]1C(=O)N2C[C@H](O)C[C@@H]2C(=O)N[C@@H](CC(=O)O)C(=O)N[C@@H](C(C)C)C(=O)N(C)[C@@H](Cc2ccccc2)C(=O)N[C@@H](CCC(=O)O)C(=O)N2C[C@H](O)C[C@@H]2C(=O)N[C@@H](Cc2c[nH]c3ccccc23)C(=O)N[C@@H](Cc2ccc(O)cc2)C(=O)N[C@@H](CCC(=O)O)C(=O)N[C@H](C(=O)NCC(N)=O)CSCC(=O)N[C@@H](Cc2ccc(F)c(F)c2)C(=O)N(C)[C@@H](Cc2ccccc2)C(=O)N1C` [Example 9312] ({CH2CO}-[Phe(3,4-F2)][NMeF][NMeNle][d(cisHyp)]DV[NMeF]E[d(cisHyp)]WYECG-NH2; thioether N-13) in this work.
An IC50 of 1 to 9.9 nM was found for `CCCC[C@H]1C(=O)N2C[C@H](O)C[C@@H]2C(=O)N[C@@H](CC(=O)O)C(=O)N[C@@H](C(C)C)C(=O)N(C)[C@@H](Cc2ccccc2)C(=O)N[C@@H](CC(=O)O)C(=O)N2C[C@H](O)C[C@@H]2C(=O)N[C@@H](Cc2c[nH]c3ccccc23)C(=O)N[C@@H](Cc2ccc(O)cc2)C(=O)N[C@@H](CCC(=O)O)C(=O)N[C@H](C(=O)NCC(N)=O)CSCC(=O)N[C@@H](Cc2ccc(F)c(F)c2)C(=O)N(C)[C@@H](Cc2ccccc2)C(=O)N1C` [Example 9314] ({CH2CO}-[Phe(3,4-F2)][NMeF][NMeNle][d(cisHyp)]DV[NMeF]D[d(cisHyp)]WYECG-NH2; thioether N-13) in this work.

Same assay, conditions: PD-L1-His 10 nM, PD-1-Ig 20 nM; read-out: HTRF Human PD-L1/PD-1 Binding Assay IC50
An IC50 of 11.7 nM was found for `CCCC[C@H]1C(=O)N2C[C@H](O)C[C@@H]2C(=O)N[C@@H](CC(=O)O)C(=O)N[C@@H](C(C)C)C(=O)N(C)[C@@H](Cc2ccccc2)C(=O)N[C@@H](CC(N)=O)C(=O)N2C[C@H](O)C[C@@H]2C(=O)N[C@@H](Cc2c[nH]c3ccccc23)C(=O)N[C@@H](Cc2ccc(O)cc2)C(=O)N[C@@H](CCCN)C(=O)N[C@H](C(=O)NCC(N)=O)CSCC(=O)N[C@@H](Cc2ccc(F)c(F)c2)C(=O)N(C)[C@@H](Cc2ccccc2)C(=O)N1C` [Example 9304] in this work.
An IC50 of 2.7 nM was found for `CCCC[C@H]1C(=O)N2C[C@H](O)C[C@@H]2C(=O)N[C@@H](CC(=O)O)C(=O)N[C@@H](C(C)C)C(=O)N(C)[C@H](Cc2ccccc2)C(=O)N[C@@H](CCC(=O)O)C(=O)N2C[C@H](O)C[C@@H]2C(=O)N[C@@H](Cc2c[nH]c3ccccc23)C(=O)N[C@@H](Cc2ccc(O)cc2)C(=O)N[C@@H](CCC(=O)O)C(=O)N[C@H](C(=O)NCC(N)=O)CSCC(=O)N[C@@H](Cc2ccc(F)c(F)c2)C(=O)N(C)[C@@H](Cc2ccccc2)C(=O)N1C` [Example 9313] ({CH2CO}-[Phe(3,4-F2)][NMeF][NMeNle][d(cisHyp)]DV[dNMeF]E[d(cisHyp)]WYECG-NH2; thioether N-13) in this work.
